Measurements taken from PubChem BioAssay AID248 (DTP/NCI, 2004).
Toxic doses and inconclusive results are not listed. No stated cut-off is given here; in the data, active means T/C of 150% or more; inactive means T/C below 125%.

Tested on: L1210 leukemia ip in BDF1 mice, survival T/C
Assay: NCI In Vivo Anticancer Drug Screen. Data for tumor model L1210 Leukemia (intraperitoneal) in B6D2F1 (BDF1) mice
Conditions: endpoint: mean survival time, higher = longer survival
Method in brief: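 Each compound was tested against a transplantable tumor grown in mice. The endpoint was survival, with treated animals benchmarked against vehicle controls as a simple ratio.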

[1] = dose: 100.0 mg/kg/injection, schedule: Q04DX003 (ip), vehicle: saline with Tween-80
[2] = dose: 200.0 mg/kg/injection, schedule: Q04DX003 (ip), vehicle: saline with Tween-80
[3] = dose: 400.0 mg/kg/injection, schedule: Q04DX003 (ip), vehicle: saline with Tween-80
[4] = dose: 50.0 mg/kg/injection, schedule: Q01DX001 (ip), vehicle: carboxymethylcellulose (CMC)
[5] = dose: 100.0 mg/kg/injection, schedule: Q01DX001 (ip), vehicle: carboxymethylcellulose (CMC)
[6] = dose: 200.0 mg/kg/injection, schedule: Q01DX001 (ip), vehicle: carboxymethylcellulose (CMC)
[7] = dose: 100.0 mg/kg/injection, schedule: Q01DX001 (ip), vehicle: Klucel (hydroxypropylcellulose) (HPC)
[8] = dose: 100.0 mg/kg/injection, schedule: Q04DX003 (ip), vehicle: Klucel (hydroxypropylcellulose) (HPC)
[9] = dose: 200.0 mg/kg/injection, schedule: Q01DX001 (ip), vehicle: Klucel (hydroxypropylcellulose) (HPC)
[10] = dose: 200.0 mg/kg/injection, schedule: Q04DX003 (ip), vehicle: Klucel (hydroxypropylcellulose) (HPC)
[11] = dose: 400.0 mg/kg/injection, schedule: Q01DX001 (ip), vehicle: Klucel (hydroxypropylcellulose) (HPC)
[12] = dose: 100.0 mg/kg/injection, schedule: Q04DX003 (ip), vehicle: acetone
[13] = dose: 200.0 mg/kg/injection, schedule: Q04DX003 (ip), vehicle: acetone
[14] = dose: 12.5 mg/kg/injection, schedule: Q04DX002 (ip), vehicle: saline with Tween-80
[15] = dose: 25.0 mg/kg/injection, schedule: Q04DX002 (ip), vehicle: saline with Tween-80
[16] = dose: 50.0 mg/kg/injection, schedule: Q04DX002 (ip), vehicle: saline with Tween-80
[17] = dose: 400.0 mg/kg/injection, schedule: Q01DX001 (ip), vehicle: carboxymethylcellulose (CMC)
[18] = dose: 400.0 mg/kg/injection, schedule: Q04DX003 (ip), vehicle: Klucel (hydroxypropylcellulose) (HPC)
[19] = dose: 100.0 mg/kg/injection, schedule: Q01DX009 (ip), vehicle: saline with Tween-80
[20] = dose: 200.0 mg/kg/injection, schedule: Q01DX009 (ip), vehicle: saline with Tween-80

Measured: T/C

Nc1nc(-c2ccc(Cl)cc2)c(N=Nc2ccc(Br)cc2)s1
inactive: [1] 104 % of control | [2] 97 % of control | [3] 101 % of control

CN(C)c1ccc(/C=N\NC(=S)Nc2ccc3cn[nH]c3c2)cc1
inactive: [4] 102 % of control | [5] 102 % of control | [6] 111 % of control

CCOCC(O)(c1ccc(Cl)cc1)c1ccc(Cl)cc1
inactive: [1] 106 % of control | [2] 95 % of control | [3] 102 % of control

COc1ccc(Cl)cc1NC(=O)C(Br)C(Br)C(=O)O (configuration not stated)
inactive: dose: 100.0 mg/kg/injection, schedule: Q01DX009 (ip), vehicle: other 96 % of control | dose: 200.0 mg/kg/injection, schedule: Q01DX009 (ip), vehicle: other 100 % of control

C=C(Br)CNC1CCC(CCCC)CC1 (configuration not stated)
inactive: dose: 50.0 mg/kg/injection, schedule: Q04DX003 (ip), vehicle: Klucel (hydroxypropylcellulose) (HPC) 106 % of control | [7] 98 % of control | [8] 102 % of control | [9] 98 % of control | [10] 93 % of control | [11] 98 % of control

O=C(O)C1CC=CCC1c1ccccc1 (configuration not stated)
inactive: dose: 100.0 mg/kg/injection, schedule: Q04DX003 (ip), vehicle: other 96 % of control | dose: 200.0 mg/kg/injection, schedule: Q04DX003 (ip), vehicle: other 96 % of control | dose: 400.0 mg/kg/injection, schedule: Q04DX003 (ip), vehicle: other 101 % of control

C/C(=C\c1ccc(O)cc1)[N+](=O)[O-]
inactive: dose: 50.0 mg/kg/injection, schedule: Q01DX009 (ip), vehicle: alcohol 104 % of control | dose: 100.0 mg/kg/injection, schedule: Q01DX009 (ip), vehicle: alcohol 105 % of control | [12] 96 % of control | dose: 200.0 mg/kg/injection, schedule: Q01DX009 (ip), vehicle: alcohol 91 % of control | [13] 105 % of control

CCCCC[CH2][Sn]([CH2]CCCCC)([CH2]CCCCC)[NH]S(=O)(=O)c1ccc(C)cc1
inactive: dose: 100.0 mg/kg/injection, schedule: Q04DX002 (ip), vehicle: saline with Tween-80 87 % of control | dose: 200.0 mg/kg/injection, schedule: Q04DX002 (ip), vehicle: saline with Tween-80 105 % of control | dose: 400.0 mg/kg/injection, schedule: Q04DX002 (ip), vehicle: saline with Tween-80 94 % of control

C/C=C/SC(=Nc1ccccc1)Nc1ccccc1
inactive: [7] 96 % of control | [9] 94 % of control | [11] 98 % of control

CCN(CC)C(=S)Oc1ccc(OC(=S)N(CC)CC)cc1
inactive: [14] 93 % of control | [15] 97 % of control | [16] 93 % of control | [2] 89 % of control | [3] 91 % of control

CC(C)(C)C(=O)CC(=O)C(C)(C)C.CC(C)(C)C(=O)CC(=O)C(C)(C)C.CC(C)(C)C(=O)CC(=O)C(C)(C)C.[Tb]
inactive: [1] 93 % of control | [2] 93 % of control | [3] 94 % of control

O=C1c2cc([N+](=O)[O-])ccc2-c2cc(Cl)c([N+](=O)[O-])cc21
inactive: [4] 102 % of control | [5] 91 % of control | [6] 91 % of control | [17] 93 % of control

C=CCN1C(=O)C=CC1=O
inactive: dose: 3.0 mg/kg/injection, schedule: Q04DX002 (ip), vehicle: Klucel (hydroxypropylcellulose) (HPC) 108 % of control | dose: 6.0 mg/kg/injection, schedule: Q04DX002 (ip), vehicle: Klucel (hydroxypropylcellulose) (HPC) 93 % of control

COC(=O)c1ccc(OCc2ccccc2)cc1
inactive: [8] 103 % of control | [10] 100 % of control | [18] 92 % of control

C=CC(O)CCCCCC (configuration not stated)
inactive: [4] 97 % of control | [5] 101 % of control | [6] 95 % of control | [17] 103 % of control

O=[N+]([O-])c1ccc(/C=C/C=C/c2ccc(Cl)cc2Cl)cc1
inactive: [19] 94 % of control | [20] 94 % of control

CC(=O)OCC1CCC1
inactive: dose: 100.0 mg/kg/injection, schedule: Q01DX001 (ip), vehicle: saline 93 % of control | dose: 100.0 mg/kg/injection, schedule: Q04DX002 (ip), vehicle: saline 105 % of control | dose: 200.0 mg/kg/injection, schedule: Q01DX001 (ip), vehicle: saline 91 % of control | dose: 200.0 mg/kg/injection, schedule: Q04DX002 (ip), vehicle: saline 118 % of control | dose: 400.0 mg/kg/injection, schedule: Q01DX001 (ip), vehicle: saline 90 % of control | dose: 400.0 mg/kg/injection, schedule: Q04DX002 (ip), vehicle: saline 96 % of control

COc1cc2c(cc1OC)C(CN)C2 (configuration not stated)
inactive: dose: 50.0 mg/kg/injection, schedule: Q01DX009 (ip), vehicle: saline 101 % of control | dose: 100.0 mg/kg/injection, schedule: Q01DX009 (ip), vehicle: saline 103 % of control | dose: 100.0 mg/kg/injection, schedule: Q04DX003 (ip), vehicle: saline 116 % of control | dose: 200.0 mg/kg/injection, schedule: Q01DX009 (ip), vehicle: saline 89 % of control | dose: 200.0 mg/kg/injection, schedule: Q04DX003 (ip), vehicle: saline 119 % of control

CC(=O)Nc1ccc2ccc3ccc4ccccc4c3c2c1
inactive: dose: 3.12 mg/kg/injection, schedule: Q04DX002 (ip), vehicle: saline with Tween-80 111 % of control | dose: 6.25 mg/kg/injection, schedule: Q04DX002 (ip), vehicle: saline with Tween-80 111 % of control | [14] 108 % of control | [15] 103 % of control | [16] 102 % of control

CCCCNC(=O)Nc1ncn[nH]1
inactive: dose: 75.0 mg/kg/injection, schedule: Q01DX001 (ip), vehicle: carboxymethylcellulose (CMC) 103 % of control | dose: 150.0 mg/kg/injection, schedule: Q01DX001 (ip), vehicle: carboxymethylcellulose (CMC) 104 % of control | dose: 300.0 mg/kg/injection, schedule: Q01DX001 (ip), vehicle: carboxymethylcellulose (CMC) 97 % of control

O=C(/C=C/c1ccccc1)N1CCCCC1
inactive: [19] 93 % of control | dose: 100.0 mg/kg/injection, schedule: Q04DX002 (ip), vehicle: Klucel (hydroxypropylcellulose) (HPC) 108 % of control | [20] 95 % of control | dose: 200.0 mg/kg/injection, schedule: Q04DX002 (ip), vehicle: Klucel (hydroxypropylcellulose) (HPC) 101 % of control | dose: 400.0 mg/kg/injection, schedule: Q01DX009 (ip), vehicle: saline with Tween-80 102 % of control

C/C(=C/C=C(/C)C(=O)O)C(=O)O
inactive: [5] 95 % of control | [8] 101 % of control | [6] 95 % of control | [10] 115 % of control | [17] 98 % of control | [18] 93 % of control

C(=C\c1ccccc1)/Nc1ccccc1
inactive: [8] 97 % of control | [10] 96 % of control | [18] 92 % of control

Cc1cccc(C)c1NC(=O)NS(=O)(=O)c1ccccc1
inactive: dose: 50.0 mg/kg/injection, schedule: Q01DX009 (ip), vehicle: saline with Tween-80 90 % of control | [19] 100 % of control | [12] 95 % of control | [20] 95 % of control | [13] 103 % of control
